According to patent US9089514B2, “Composition and method for inhibiting biogenic sulfide generation” (Arkion Life Sciences, priority 2010, dated 2015):
“And” between values parts separate entries of the source, which are not always exact repeats. Equal entries are not always repeated.

How the values were obtained:
Type in all cases: cell-based, Prudhoe Bay sulfate reducing bacteria
[1] = system: sulfate reducing bacteria (SRB) biofilms; test: Test Series #1: inhibition of H2S biogeneration from SRB biofilms on granite chips; conditions: for Sulfides Day 1: day 1 after treatment; for Sulfides Day 1 / Sulfides Day 2 / Sulfides Day 3: THPS 51 ppmw, AQ or AHQ (AHQ-slurry-1) 25 ppmw per tube, 30° C.; for Sulfides Day 2: day 2 after treatment; for Sulfides Day 3: day 3 after treatment
Description: (§1) 1. Load 7 grams of crushed granite chips into 15-ml culture tubes; autoclave.
(§2) 2. Prepare an inoculum by adding a culture of Prudhoe Bay sulfate reducing bacteria to a flask containing an appropriate iron-free culture medium for sulfate reducing bacteria that further contains 90% deaerated artificial sea water. Incubate bacteria anaerobically at 30° C. for 3-4 days.
(§3) 3. Fill each 15 ml culture tube containing granite chips with the inoculum; incubate tubes anaerobically at 30° C. for 7-11 days in a Lab-Line Orbit Environ-Shaker set at 30° C. and 120 rpm. All incubation steps for the bacteria in the culture tubes were performed is in the Environ-Shaker.
(§4) 4. Pour off spent medium and fill with fresh medium. Incubate for 6-7 days then replace medium with fresh medium again. Repeat medium change after 4-8 days and incubate for 3-5 additional days.
(§5) 5. Treat the biofilms that have grown on the granite chips as described below. Incubate at 30° C.
(§6) 6. Monitor the aqueous sulfide content in the tubes daily for up to three days, beginning the day after treatment, to determine the effectiveness of each treatment option on generation of hydrogen sulfide. Sulfide dissolved in the medium was determined in mg/L using Hach Method 8131 for the Hach DR-2010 spectrophotometer. The method utilizes methylene blue to measure total sulfides. The sulfide level in each tube was determined by gently inverting the tube several times, uncapping the tube and quickly removing a 125 μl aliquot of solution, and recapping the tube. The aliquot was diluted in 24.9 ml of deionized water in a quartz cuvette for the Hach procedure. The procedure is summarized in Table 1 for three separate test series.
Following the growth of the sulfate reducing bacteria (SRB) biofilms on the granite chips in the culture tubes, the biofilms were treated by injecting the appropriate test solution and then gently tumbling the tubes for two minutes on a Barnstead/Thermolyne Labquake Tube Shaker to allow the treatment solution to dynamically contact the biofilms.
Test compound solutions were injected into the tubes. THPS was added to 51 ppmw per tube. AQ and AHQ-slurry-1 were added to 25 ppmw AQ or AHQ per tube. Each tube contained about 14 ml of medium. The tubes were tumbled for two minutes, then moved to a nitrogen glove bag. The liquid was removed and the tubes were washed once with is medium and then refilled with medium. The tubes were then tumbled once more for two minutes before being placed in a Lab-Line Orbit Environ-Shaker set at 30° C. and 120 rpm for incubation.
Control tubes contained biofilms on granite chips and culture medium, but no test compound. Control tubes were otherwise handled as described above for test-compound tubes.
In THPS-treated tubes all of the residual THPS was removed so that biocidal activity occurred only during the contact time while tumbling. In AQ and AHQ treated tubes, residual test solutions were allowed to remain in the tubes to simulate treatment in a tank, where AQ or AHQ settles in the biofilm/sludge at the bottom of the vessel. Treatments were performed in duplicate.

[2] = system: sulfate reducing bacteria (SRB) biofilms; test: Test Series #2: AQ, AHQ and AQ:AHQ slurries, sulfide monitoring in SRB biofilm tubes; conditions: for Sulfides Day 1: day 1, same combined mass of active AQ plus AHQ; for Sulfides Day 1 / Sulfides Day 2 / Sulfides Day 3: AHQ-slurry-2 used; for Sulfides Day 2: day 2, same combined mass of active AQ plus AHQ; for Sulfides Day 3: day 3, same combined mass of active AQ plus AHQ
Description: as §1, §2, §3, §4, §5, §6
(§7) This test series was performed to further compare the efficacy of slurries of AHQ and AQ and combinations of AHQ/AQ in slurries in controlling H2S emissions. AHQ-slurry-2 was used in this series of experiments. The tests were performed by first removing the spent medium from the tubes, refilling with fresh medium, treating with the test solution, tumbling the tubes for two minutes, and then incubating at 30° C. in the Lab-Line Orbit Environ-Shaker.
Each test was made with the same combined mass of active AQ plus AHQ. Results, as summarized in Table 3 and FIG. 2, confirmed the results of Series #1 in that all treatments were effective compared with the control.

[3] = system: sulfate reducing bacteria (SRB) biofilms; test: Test Series #3b: simulated gravity settling, AQ vs AHQ-slurry-2, sulfide monitoring
Description: as §6
(§8) Gravity settling in the tank was simulated by spinning the culture tubes after treatment in a laboratory centrifuge at 2000 to 2700 rpm. The AQ or AHQ particles then “settled” to the bottom of the tube and were able to deposit into the biofilm on the granite chips. The medium above the granite chips was then removed and replaced with fresh medium. The tubes were then incubated at 30° C. in the Lab-Line Orbit Environ-Shaker. The concentration of AQ or AHQ in the removed medium was analyzed to determine the amount of AQ or AHQ deposited in the biofilm. Experiments were run with duplicate samples.
Test Series #3b was performed with the same procedure as Test Series #3a to compare the efficacy of the AQ test mixture (AQ) with that of AHQ-slurry-2 at the same AHQ or AQ mass loading (0.254 mg). The tubes were spun for 20 seconds.

[4] = system: sulfate reducing bacteria (SRB) biofilms; test: AHQ di-alkali salt solution vs AHQ-slurry-2 by the Test Series #2 procedure; conditions: 18 ppmw AHQ
Description: as §6, §7
Each test treatment contained 18 ppmw AHQ. […] However, under some circumstances, larger particle sizes are preferable. […]

[5] = system: sulfate reducing bacteria (SRB) biofilms; test: Test Series #3a: simulated gravity settling in tank (centrifugation), sulfide monitoring; conditions: 0.254 mg AHQ
Description: as §6, §8
Two series of tests were performed with this procedure. Series #3a compared the efficacy of treating with the AHQ di-alkali salt test solution (AHQ) and the AHQ test mixture #2 (AHQ-slurry-2) at the same AHQ mass loading (0.254 mg AHQ). Two different centrifugation times (20 sec, 60 sec) were utilized in Test Series #3a to represent two different tank residence times.

| Compound | Sulfides Day 1 [1] | Sulfides Day 2 [1] | Sulfides Day 3 [1] | inhibiting H2S biogeneration from SRB biofilms (comparison in words) [1] | inhibiting the generation of H2S (comparison in words) [2] | Sulfides Day 1 [2] | Sulfides Day 2 [2] | Sulfides Day 3 [2] | inhibiting H2S generation (comparison in words) [3] | reducing sulfides (comparison in words) [4] | sulfides on day 3 of treatment ([4]; Test Series #2 procedure (no settling)) | Sulfides Day 1 ([5]; centrifugation 20 sec) | Sulfides Day 2 ([5]; centrifugation 20 sec) | Sulfides Day 3 ([5]; centrifugation 20 sec) | Sulfides Day 1 ([5]; centrifugation 60 sec) | Sulfides Day 2 ([5]; centrifugation 60 sec) | Sulfides Day 3 ([5]; centrifugation 60 sec) | Sulfides Day 1 ([3]; spun 20 sec, 0.254 mg AHQ or AQ, day 1) | Sulfides Day 2 ([3]; spun 20 sec, 0.254 mg AHQ or AQ, day 2) |
| --- | --- | --- | --- | --- | --- | --- | --- | --- | --- | --- | --- | --- | --- | --- | --- | --- | --- | --- | --- |
| tetrakishydroxymethylphosphonium sulfate [THPS] | 18 mg/L and 19.8 mg/L | 39.6 mg/L and 38.4 mg/L | 46.2 mg/L | – | – | – | – | – | – | – | – | – | – | – | – | – | – | – | – |
| Oc1c2ccccc2c(O)c2ccccc12 [AHQ, anthrahydroquinone] | 9.2 mg/L and 11.2 mg/L | 23 mg/L and 27 mg/L | 30.6 mg/L and 31 mg/L | superior to THPS, AQ, and the combination of THPS and AQ | more effective than AQ solution alone or AHQ/AQ neutral slurry combinations | 22.2 mg/L and 19.6 mg/L | 31 mg/L and 26.6 mg/L | 36.8 mg/L and 36.4 mg/L | superior to AQ in inhibiting H2S generation | – | – | – | – | – | – | – | – | – | – |
| [Na+].[Na+].[O-]c1c2ccccc2c([O-])c2ccccc12 [AHQ, dialkali salt solution, anthrahydroquinone di-alkali salt] | – | – | – | – | – | – | – | – | – | superior to AHQ neutral slurry in reducing sulfides | 7.4 mg/L | 29 mg/L and 31 mg/L | 37.6 mg/L and 45.2 mg/L | 42 mg/L and 48.6 mg/L | 36.6 mg/L and 21.8 mg/L | 50.8 mg/L and 37 mg/L | 53.6 mg/L and 42.6 mg/L | – | – |
| O=C1c2ccccc2C(=O)c2ccccc21 [AQ, anthraquinone] | 22.6 mg/L and 19 mg/L | 41.2 mg/L and 34.6 mg/L | 46.2 mg/L and 40.8 mg/L | comparable to THPS treatment | – | 33.2 mg/L and 30.4 mg/L | 40 mg/L and 38.8 mg/L | 44.4 mg/L and 43.2 mg/L | – | – | – | – | – | – | – | – | – | 43.8 mg/L and 33.8 mg/L | 54.2 mg/L and 50.2 mg/L |
